Laboratory results taken from PMC8434401, “Trifluoromethylated Flavonoid-Based Isoxazoles as Antidiabetic and Anti-Obesity Agents: Synthesis, In Vitro α-Amylase Inhibitory Activity, Molecular Docking and Structure–Activity Relationship Analysis” (Molecules, 2021).
Read-outs that look alike come from different tables or passages of the source.

Legend:
[1] = biological target: Aspergillus oryzae α-amylase (Aspergillus oryzae, UniProt P0C1B3); assay: biochemical; conditions: for inhibition at 50 µM: read-out: α-Amylase Inhibition PI ± SEM% (percentage inhibition)
Protocol: The α-amylase inhibition assays were carried out according to the protocol described by Chortani et al. (2021), with some modifications. In short, all of the compounds were dissolved in DMSO and then diluted in sodium phosphate buffer (0.02 M, pH 6.9 with 0.006 M NaCl). […] The samples were tested at different concentrations of 50, 25, 12.5, and 6.25 μM. After that, 50 μL of the sample solution was added to 50 μL of Aspergillus oryzae α-amylase solution (0.5 mg/mL) dissolved in the same buffer medium. After pre-incubation for 10 min at 25 °C, 50 μL of starch solution (1% in buffer solution) was added to the mixture. After 10 min of incubation at 25 °C, the product of the reaction was mixed with 100 μL of 3,5-dinitrosalicylic acid solution. At this point, the test tubes were placed for 5 min in a boiling water bath (100 °C), followed by cooling to room temperature. Next, each solution was diluted with 1 mL of distilled water. Over time, the absorbance was measured at 540 nm using a Thermo Scientific™ Multiskan™ GO Microplate Spectrophotometer using a 96-well microplate.
The α-amylase inhibitory activity was determined as follows:PI (%) = 100[(AbsControl−AbsSample)/(AbsControl)] where AbsControl is the absorbance of the solution without sample (buffer instead of the sample solution) and AbsSample is the absorbance of the mixture with the solution of the sample to be tested. […] Each assay was conducted in triplicate.

[2] = Table S1, from the concentration-response curves used to calculate the IC50 values (concentrations in μM), read-out: log(IC50) (converted)
[3] = potency, concentration providing 50% inhibition, mean ± SEM, triplicate, read-out: α-Amylase Inhibition IC50 ± SEM

| Compound | inhibition at 50 µM [1] | melting point | IC50 [1, 2] | IC50 [1, 3] |
| --- | --- | --- | --- | --- |
| C[C@H]1O[C@H](O[C@H]2[C@H](O)[C@@H](O)[C@@H](O[C@H]3[C@H](O)[C@@H](O)C(O)O[C@@H]3CO)O[C@@H]2CO)[C@H](O)[C@@H](O)[C@@H]1N[C@H]1C=C(CO)[C@@H](O)[C@H](O)[C@H]1O (stereo partly shown) [Acarbose, reference compound] | 97.8 ± 0.5% |  |  |  |
| O=c1c(O)c(-c2ccc(C(F)(F)F)cc2)oc2ccc(Cl)cc12 [Compound 1, 6-Chloro-3-hydroxy-2-(4-(trifluoromethyl)phenyl)-4H-chromen-4-one] | 75.2 ± 1.4% | 275 °C | 15.3 µM | 15.3 ± 0.4 µM |
| C#CCOc1c(-c2ccc(C(F)(F)F)cc2)oc2ccc(Cl)cc2c1=O [Compound 2, 6-Chloro-3-(prop-2-yn-1-yloxy)-2-(4-(trifluoromethyl)phenyl)-4H-chromen-4-one] | 75.2 ± 0.3% | 122 °C | 17.7 µM | 17.7 ± 0.2 µM |
| O=c1c(OCc2cc(-c3ccccc3)no2)c(-c2ccc(C(F)(F)F)cc2)oc2ccc(Cl)cc12 [Compound 3a, 6-Chloro-3-((3-phenylisoxazol-5-yl)methoxy)-2-(4-(trifluoromethyl)phenyl)-4H-chromen-4-one] | 65.6 ± 0.2% | 134 °C | 27.2 µM | 27.2 ± 0.7 µM |
| O=c1c(OCc2cc(-c3ccc(F)cc3)no2)c(-c2ccc(C(F)(F)F)cc2)oc2ccc(Cl)cc12 [Compound 3b, 6-Chloro-3-((3-(4-fluorophenyl)isoxazol-5-yl)methoxy)-2-(4-(trifluoromethyl)phenyl)-4H-chromen-4-one] | 94.7 ± 1.2% | 147 °C | 12.6 µM | 12.6 ± 0.2 µM |
| O=c1c(OCc2cc(-c3ccc(Cl)cc3)no2)c(-c2ccc(C(F)(F)F)cc2)oc2ccc(Cl)cc12 [Compound 3c, 6-Chloro-3-((3-(4-chlorophenyl)isoxazol-5-yl)methoxy)-2-(4-(trifluoromethyl)phenyl)-4H-chromen-4-one] | 87.1 ± 0.7% | 177 °C | 14.4 µM | 14.4 ± 0.2 µM |
| O=c1c(OCc2cc(-c3ccc(Br)cc3)no2)c(-c2ccc(C(F)(F)F)cc2)oc2ccc(Cl)cc12 [Compound 3d, 3-((3-(4-Bromophenyl)isoxazol-5-yl)methoxy)-6-chloro-2-(4-(trifluoromethyl)phenyl)-4H-chromen-4-one] | 85.4 ± 0.9% | 179 °C | 14.6 µM | 14.6 ± 0.3 µM |
| Cc1ccc(-c2cc(COc3c(-c4ccc(C(F)(F)F)cc4)oc4ccc(Cl)cc4c3=O)on2)cc1 [Compound 3e, 6-Chloro-3-((3-(p-tolyl)isoxazol-5-yl)methoxy)-2-(4-(trifluoromethyl)phenyl)-4H-chromen-4-one] | 65.4 ± 0.4% | 171 °C | 26 µM | 26 ± 0.7 µM |
| CC(C)(C)c1ccc(-c2cc(COc3c(-c4ccc(C(F)(F)F)cc4)oc4ccc(Cl)cc4c3=O)on2)cc1 [Compound 3f, 3-((3-(4-(Tert-butyl)phenyl)isoxazol-5-yl)methoxy)-6-chloro-2-(4-(trifluoromethyl)phenyl)-4H-chromen-4-one] | 64.5 ± 0.7% | 112 °C | 27.6 µM | 27.6 ± 1.1 µM |
| O=c1c(OCc2cc(-c3ccc([N+](=O)[O-])cc3)no2)c(-c2ccc(C(F)(F)F)cc2)oc2ccc(Cl)cc12 [Compound 3g, 6-Chloro-3-((3-(4-nitrophenyl)isoxazol-5-yl)methoxy)-2-(4-(trifluoromethyl)phenyl)-4H-chromen-4-one] | 74.7 ± 0.3% | 175 °C | 18.1 µM | 18.1 ± 0.3 µM |
| COc1ccc(-c2cc(COc3c(-c4ccc(C(F)(F)F)cc4)oc4ccc(Cl)cc4c3=O)on2)cc1 [Compound 3h, 6-Chloro-3-((3-(4-methoxyphenyl)isoxazol-5-yl)methoxy)-2-(4-(trifluoromethyl)phenyl)-4H-chromen-4-one] | 93.5 ± 1.1% | 152 °C | 13.3 µM | 13.3 ± 0.2 µM |
| CCCCOc1ccc(-c2cc(COc3c(-c4ccc(C(F)(F)F)cc4)oc4ccc(Cl)cc4c3=O)on2)cc1 [Compound 3i, 3-((3-(4-Butoxyphenyl)isoxazol-5-yl)methoxy)-6-chloro-2-(4-(trifluoromethyl)phenyl)-4H-chromen-4-one] | 79.4 ± 1% | 130 °C | 15.6 µM | 15.6 ± 0.2 µM |
| CCCCOc1ccc(-c2cc(COc3c(-c4ccc(C(F)(F)F)cc4)oc4ccc(Cl)cc4c3=O)on2)cc1Cl [Compound 3j, 3-((3-(4-Butoxy-3-chlorophenyl)isoxazol-5-yl)methoxy)-6-chloro-2-(4-(trifluoromethyl)phenyl)-4H-chromen-4-one] | 93.1 ± 0.9% | 134 °C | 13.7 µM | 13.7 ± 0.2 µM |
| COc1ccc(-c2cc(COc3c(-c4ccc(C(F)(F)F)cc4)oc4ccc(Cl)cc4c3=O)on2)cc1Cl [Compound 3k, 6-Chloro-3-((3-(3-chloro-4-methoxyphenyl)isoxazol-5-yl)methoxy)-2-(4-(trifluoromethyl)phenyl)-4H-chromen-4-one] | 72.5 ± 1.1% | 141 °C | 21 µM | 21 ± 0.6 µM |
| COc1ccc(-c2cc(COc3c(-c4ccc(C(F)(F)F)cc4)oc4ccc(Cl)cc4c3=O)on2)cc1Br [Compound 3l, 3-((3-(3-Bromo-4-methoxyphenyl)isoxazol-5-yl)methoxy)-6-chloro-2-(4-(trifluoromethyl)phenyl)-4H-chromen-4-one] | 70.4 ± 0.4% | 144 °C | 23 µM | 23 ± 0.2 µM |
| COc1ccc(-c2cc(COc3c(-c4ccc(C(F)(F)F)cc4)oc4ccc(Cl)cc4c3=O)on2)cc1OC [Compound 3m, 6-Chloro-3-((3-(3,4-dimethoxyphenyl)isoxazol-5-yl)methoxy)-2-(4-(trifluoromethyl)phenyl)-4H-chromen-4-one] | 93.3 ± 2% | 152 °C | 13.8 µM | 13.8 ± 0.1 µM |
